Where two headings read alike, the source gives them in different places.
Experiments:
[1] = tested on: PC12 cells; assay: Inhibition of [3H]norepinephrine neurosecretion by PC12 cells; format: cell-based, rat; conditions: for inhibition of secretion, stability test: 100 μM
Experimental: Using the neurosecretion assay described above, peptides fused to the TAT-PTD (L-TAT) were tested for inhibition of neurotransmitters and compared to use of L-TAT alone (SEQ ID NO: 3). In vitro screening for synthetic peptides capable of efficiently and selectively blocking neurotransmitter release in the PC12 cell line grown under defined conditions was performed.
PC12 cells were washed with DMEM-WM (Dulbecco's Modified Eagle Medium (GIBCO cat. no. 31968) completed with 25 units of penicillin and streptomycin each) and loaded for 1-2 h with [^3H] norepinephrine (NE; 0.5 μCi/ml) in DMEM-CM (DMEM-WM complemented with 6% horse serum and 6% fetal calf serum). Cells were washed for 1 h with DMEM-WM, and then washed 2 times at 5-minute intervals. Basal release was determined by a 15-minutes incubation with CaSB-glucose 5 mM K^+ (CaSB-glucose: 140 mM NaCl, 5 mM KCl, 2 mM CaCl2, 11 mM glucose, [pH 7.4]). The peptides were added to the cells at defined concentrations after loading with NE but before induction of secretion. Cells were depolarized with 85 mM K^+ (CaSB-glucose with Na^+ reduced accordingly) for 15 minutes to determine stimulated release. Superfusate (1 ml) was removed to tubes. Adherent cells were solubilized in CaSB-glucose-0.1% Triton (1 ml/well). The quantities of released and non-released radiolabeled neurotransmitter were determined by liquid scintillation counting of cleared superfusates and cell lysates, respectively. Total uptake was calculated by addition of released and retained radioactivity, and the percentage release was as calculated (released counts/total uptake counts)×100. Results were also expressed as percent inhibition of neurosecretion.

[2] = tested on: PC12 cells; format: cell-based, rat
Experimental: […]. Very little toxicity was present at 24 hours, and cytotoxicity at 48 hours was only slightly greater than at 24 hours. Cytotoxicity generally dipped to approximately 90% live cells when peptides were administered at 500 μM.

[3] = tested on: lung fibroblasts; assay: Stressed collagen lattice contraction assay; format: cell-based, rat; conditions: peptide 60 minutes before gel release; compared to control gels and L-9K treated gels; preliminary
[4] = tested on: PC12-ES cells; assay: Evoked neurotransmitter secretion by undifferentiated PC12-ES cells, furin inhibitor and arginine rich peptides; format: cell-based, rat; conditions: potassium 80 mM, 15 minutes
[5] = tested on: smooth muscle cell line (A7r5); assay: Cell contraction/relaxation on silicon sheet, smooth muscle cells; format: cell-based
Experimental: Lung biopsy was obtained from a Sprague Dawley rat, divided in small tissue slices, placed in culture dishes, and maintained then in organ culture in Dulbecco's modified Eagle's medium (GibcoBRL, Life Technologie) containing 10% decomplemented fetal bovine serum (FBS) supplemented with 100 U/ml penicillin, 100 μg/ml streptomycin, 4 mM I-glutamine, at 37° C., in 5% CO2. Cells were maintained during 2-3 weeks (2-8 passages), replacing medium frequently. At confluence, cells were detached from the culture dish with 0.125% trypsin-EDTA mixture (Sigma) for 10 minutes at 37° C., resuspended in complete medium, and seeded over silicon-coated tissue culture dishes at 3.5×10^3 cells/cm^2. One to two days after, cells were treated with the appropriate peptide at 10 or 50 μM, and peptide-induced cell contraction/relaxation effect followed for 1-3 hours by live videomicroscopy. A smooth muscle cell line (A7r5) kept in similar conditions was also used to follow the peptide-induced effects on these cells grown over silicon sheet.
Live videomicroscopy was performed under controlled temperature and CO2 conditions using a Zeiss Axiovert 200M (Zeiss, Oberkochem, Germany), equipped with a spinning disk Nipkow confocal head (Yokogawa CSU10), Photometrics CoolSNAP-HQ CCD camera and Metamorph 6.0 acquisition software (Visitron Systems, Puchheim, Germany). […]

[6] = tested on: PC-12 cells; assay: Subcellular localization of FITC-labeled peptide and colocalization with furin, confocal microscopy; format: cell-based, rat; conditions: 1 and 100 μM
Description: Two peptides of interest were FITC-labeled (Anaspec) to follow their interiorization on PC-12 cells (rat pheochromocytoma cells): L-Bel1 (SEQ ID NO. 3) and D-9Rac/am (SEQ ID NO. 15). After observation of L-Bel1-FITC conjugate interiorization, a monoclonal antibody for furin endoprotease was used for colocalization studies by confocal microscopy analysis.
PC-12 cells were resuspended in Dulbecco's modified Eagle's medium (DMEM) high glucose (Gibco BRL, Life Technologies) containing 6% decomplemented horse serum, 6% decomplemented fetal bovine serum, supplemented with 25 U/ml penicillin-streptomycin-I-glutamine. Cells were seeded at 3×10^4 cells/well (200 μl), on 8-well microscope slide chamber (BD Biosciences), previously coated with collagen I (Roche Diagnostics) solution (0.0007%). After an overnight incubation at 37° C. in 5% CO2, cells were washed twice using fresh medium without serum, and then incubated in the presence or absence of the peptide, for the indicated time. […]
The fluorescent images were obtained by confocal laser scanning microscope (Zeiss LSM 510) with lasers of argon (488 nm), helium-neon 1 (543 nm), and enterprise (364 nm); connected to an inverted fluorescence microscope (Zeiss Axiovert 100 M), equipped with a 63×/1.4 PL APO chromate objective lens.

SMILES: N=C(N)NCCC[C@H](NC(=O)CNC(=O)[C@H](Cc1ccc(O)cc1)NC(=O)CN)C(=O)N[C@@H](CCCCN)C(=O)N[C@@H](CCCCN)C(=O)N[C@@H](CCCNC(=N)N)C(=O)N[C@@H](CCCNC(=N)N)C(=O)N[C@@H](CCC(N)=O)C(=O)N[C@@H](CCCNC(=N)N)C(=O)N[C@@H](CCCNC(=N)N)C(=O)N[C@@H](CCCNC(=N)N)C(=O)NCC(=O)O [L-Tat]
- dose dependence of inhibition of neurosecretion [1]: dose dependent inhibition
- inhibition of secretion, stability test ([1]; 0 hours): 50%
- inhibition of secretion, stability test ([1]; 1 hour): 38%
- inhibition of secretion, stability test ([1]; 24 hours): 35%
- inhibition of secretion, stability test ([1]; 48 hours): 39%
- inhibition of secretion, stability test ([1]; No Serum): 65%
- dose dependence of inhibition of neurosecretion ([1]; listed as L-Bel1): dose dependent
- inhibition of PC12 neurotransmitter secretion ([1]; peptide 10 μM): >20%
- inhibition of PC12 neurotransmitter secretion ([1]; peptide 50 μM): 50%
- inhibition of PC12 neurotransmitter secretion ([1]; peptide 100 μM): 55%
- inhibition of PC12 neurotransmitter secretion ([1]; peptide 100 μM, listed as L-Bel1): more than 60%
- inhibition of PC12 neurotransmitter secretion ([1]; peptide 250 μM): 70%
- cytotoxicity (MTT) [2]: no marked cytotoxicity
- myofibroblast-mediated collagen gel contraction [3]: decrease
- inhibition of evoked neurotransmitter secretion by PC12-ES cells ([4]; 10 μM): 24.6%
- inhibition of evoked neurotransmitter secretion by PC12-ES cells ([4]; 100 μM): 56.4%
- relaxing effect on smooth muscle cells [5]: same effect
- internalization of FITC-labeled peptide [6]: crosses the basal membrane

Reference: patent US8318898B2, “Synthetic peptides for use as inhibitors of neurotransmitter secretion and as inducers of cellular relaxation” (Universite de Lausanne, priority 2005, dated 2012)
